# DBAASP
# What was measured:
# Assay in all cases: ≥ marks a high value that may be exact or a test limit, other limits are often not marked, values filed in µg/mL are converted to µM
# [1] = tested on: Bacillus cereus
# [2] = tested on: Escherichia coli
# [3] = tested on: Staphylococcus aureus
# [4] = tested on: Candida albicans ATCC 90028
# [5] = tested on: Escherichia coli ATCC 25922
# [6] = tested on: Pseudomonas aeruginosa ATCC 27853
# [7] = tested on: Staphylococcus aureus ATCC 29213
Structure (SMILES),MIC [1],MIC [2],MIC [3],MIC [4],MIC [5],MIC [6],MIC [7]
CC(C)[C@H](NC(=O)[C@H](CO)NC(=O)[C@@H](NC(=O)[C@H](CCCCN)NC(=O)[C@H](C)NC(=O)[C@@H](NC(=O)[C@@H](NC(=O)[C@H](CCCCN)NC(=O)[C@@H](NC(=O)[C@H](Cc1ccccc1)NC(=O)[C@H](CO)NC(=O)[C@H](CS)NC(=O)[C@@H]1CCCN1C(=O)[C@H](Cc1ccc(O)cc1)NC(=O)[C@H](CO)NC(=O)CNC(=O)[C@H](CCCCN)NC(=O)CNC(=O)[C@@H](NC(=O)[C@@H](N)CCCCN)C(C)C)C(C)C)C(C)C)C(C)C)C(C)C)C(=O)O [KVGKGSYPCSFVKVVAKVSV],≥ 123 µM,> 123 µM,–,–,–,–,–
CC(C)C[C@H](NC(=O)[C@H](CCCCN)NC(=O)[C@H](Cc1ccccc1)NC(=O)[C@@H](NC(=O)[C@@H](NC(=O)CNC(=O)[C@H](CC(C)C)NC(=O)[C@@H](N)Cc1ccccc1)C(C)C)C(C)C)C(=O)N[C@@H](C)C(=O)N[C@@H](CO)C(=O)N[C@@H](CCCCN)C(=O)N[C@H](C(=O)N[C@@H](Cc1ccccc1)C(=O)NCC(=O)N[C@@H](C)C(=O)N[C@H](C(=O)N[C@@H](Cc1ccccc1)C(=O)NCC(=O)N[C@@H](CCCCN)C(=O)N[C@H](C(=O)O)C(C)C)C(C)C)C(C)C [FLGVVFKLASKVFGAVFGKV],7.57 µM,> 121 µM,3.79 µM,–,–,–,–
CC[C@H](C)[C@H](NC(=O)[C@H](CCCN=C(N)N)NC(=O)[C@@H](N)CCCCN)C(=O)N[C@H](C(=O)N[C@@H](CCC(N)=O)C(=O)N[C@@H](CCCN=C(N)N)C(=O)N[C@@H](CCCCN)C(=O)N[C@@H](CCCCN)C(=O)N[C@@H](CC(=O)O)C(=O)N[C@@H](Cc1ccccc1)C(=O)N[C@@H](CC(C)C)C(=O)N[C@@H](CCCN=C(N)N)C(=O)O)C(C)C [KRIVQRKKDFLR],–,–,–,≥ 40 µM,20 µM,40 µM,40 µM
CC[C@H](C)[C@H](NC(=O)CN)C(=O)N[C@@H](CCSC)C(=O)N[C@@H](CC(=O)O)C(=O)N[C@H](C(=O)N[C@H](C(=O)N[C@@H](CCCCN)C(=O)N[C@@H](CC(N)=O)C(=O)N[C@@H](C)C(=O)N[C@@H](C)C(=O)N[C@@H](CCCCN)C(=O)N[C@@H](CC(=O)O)C(=O)N[C@@H](CC(C)C)C(=O)N[C@@H](C)C(=O)NCC(=O)N[C@@H](CCC(N)=O)C(=O)N[C@@H](CC(C)C)C(=O)N[C@@H](CC(=O)O)C(=O)N[C@@H](CCCCN)C(=O)N[C@@H](CC(C)C)C(=O)N[C@@H](CCCCN)C(=O)N[C@H]1CSSC[C@@H](C(=O)O)NC(=O)CNC(=O)[C@H]([C@@H](C)O)NC(=O)[C@H]([C@@H](C)CC)NC(=O)[C@H](CCCN=C(N)N)NC1=O)C(C)C)[C@@H](C)O [GIMDTVKNAAKDLAGQLDKLKCRITGC],–,–,–,≥ 130 µM,23 µM,–,–
CC[C@H](C)[C@H](NC(=O)[C@H](Cc1ccccc1)NC(=O)CN)C(=O)NCC(=O)N[C@@H](CCCCN)C(=O)N[C@@H](CC(C)C)C(=O)N[C@@H](C)C(=O)N[C@@H](CO)C(=O)N[C@@H](CCCCN)C(=O)N[C@H](C(=O)N[C@H](C(=O)N1CCC[C@H]1C(=O)N[C@@H](CO)C(=O)N[C@H](C(=O)N[C@@H](Cc1ccc(O)cc1)C(=O)N[C@@H](CS)C(=O)N[C@@H](CCCCN)C(=O)N[C@H](C(=O)N[C@H](C(=O)NCC(=O)O)[C@@H](C)O)C(C)C)C(C)C)C(C)C)C(C)C [GFIGKLASKVVPSVYCKVTG],≥ 125 µM,62.3 µM,–,–,–,–,–
CC(C)C[C@H](NC(=O)CNC(=O)[C@H](Cc1ccccc1)NC(=O)[C@@H](NC(=O)[C@H](CO)NC(=O)[C@@H]1CCCN1C(=O)[C@@H](NC(=O)[C@@H](NC(=O)[C@H](CCCCN)NC(=O)[C@H](CO)NC(=O)[C@H](C)NC(=O)[C@H](CC(C)C)NC(=O)[C@H](CCCCN)NC(=O)[C@H](Cc1ccccc1)NC(=O)[C@@H](NC(=O)[C@H](C)NC(=O)[C@@H]1CCCN1C(=O)[C@@H](N)CC(C)C)C(C)C)C(C)C)C(C)C)C(C)C)C(=O)N[C@H](C(=O)N[C@@H](CCCCN)C(=O)O)C(C)C [LPAVFKLASKVVPSVFGLVK],≥ 122 µM,> 122 µM,–,–,–,–,–
CC[C@H](C)[C@H](NC(=O)[C@@H](NC(=O)[C@H](C)NC(=O)[C@H](C)NC(=O)[C@@H](NC(=O)[C@H](CCCN=C(N)N)NC(=O)[C@H](CO)NC(=O)[C@H](CO)NC(=O)[C@@H](NC(=O)[C@@H](NC(=O)[C@H](CC(C)C)NC(=O)[C@@H](NC(=O)[C@H](Cc1ccccc1)NC(=O)[C@@H]1CCCN1C(=O)[C@H](CO)NC(=O)[C@@H](N)CCCCN)C(C)C)C(C)C)C(C)C)C(C)C)C(C)C)C(=O)N[C@@H](CCCCN)C(=O)N[C@@H](CO)C(=O)N[C@@H](CC(C)C)C(=O)N1CCC[C@H]1C(=O)O [KSPFVLVVSSRVAAVIKSLP],≥ 122 µM,> 122 µM,–,–,–,–,–
CC[C@H](C)[C@H](NC(=O)[C@H](CCCN=C(N)N)NC(=O)[C@H](CCC(N)=O)NC(=O)[C@@H](NC(=O)[C@@H](NC(=O)[C@H](CCCN=C(N)N)NC(=O)[C@@H](N)CCCCN)[C@@H](C)CC)C(C)C)C(=O)N[C@@H](CCCCN)C(=O)N[C@@H](C)C(=O)N[C@@H](Cc1ccccc1)C(=O)N[C@@H](CC(C)C)C(=O)N[C@@H](CCCN=C(N)N)C(=O)O [KRIVQRIKAFLR],–,–,–,5 µM,1.25 µM,1.25 µM,2.5 µM
CC(C)[C@H](N)C(=O)N[C@H](C(=O)N[C@@H](Cc1ccccc1)C(=O)N[C@@H](CCCN=C(N)N)C(=O)N[C@H](C(=O)N[C@@H](C)C(=O)N[C@@H](CO)C(=O)N[C@@H](CCCCN)C(=O)N[C@H](C(=O)N[C@@H](Cc1ccccc1)C(=O)N1CCC[C@H]1C(=O)N[C@@H](C)C(=O)N[C@H](C(=O)N[C@@H](Cc1ccc(O)cc1)C(=O)N[C@@H](CS)C(=O)N[C@H](C(=O)N[C@H](C(=O)N[C@@H](CO)C(=O)N[C@@H](CCCCN)C(=O)N[C@@H](CCCCN)C(=O)O)C(C)C)[C@@H](C)O)C(C)C)C(C)C)C(C)C)C(C)C [VVFRVASKVFPAVYCTVSKK],≥ 115 µM,57.4 µM,–,–,–,–,–
CC[C@H](C)[C@H](NC(=O)[C@H](C)NC(=O)CNC(=O)[C@H](Cc1ccccc1)NC(=O)[C@@H](NC(=O)[C@H](CO)NC(=O)[C@@H]1CCCN1C(=O)[C@@H](NC(=O)[C@@H](NC(=O)[C@H](CCCCN)NC(=O)[C@H](CO)NC(=O)[C@H](C)NC(=O)[C@H](CC(C)C)NC(=O)[C@H](CO)NC(=O)CNC(=O)[C@@H](NC(=O)[C@@H](N)Cc1ccccc1)C(C)C)C(C)C)C(C)C)C(C)C)C(=O)N[C@@H](CCCCN)C(=O)N[C@H](C(=O)N[C@@H](CCCCN)C(=O)O)[C@@H](C)O [FVGSLASKVVPSVFGAIKTK],≥ 126 µM,> 126 µM,–,–,–,–,–
CC[C@H](C)[C@H](NC(=O)[C@H](CO)NC(=O)[C@H](C)NC(=O)[C@H](CCCCN)NC(=O)[C@H](CC(C)C)NC(=O)[C@@H](NC(=O)[C@@H](NC(=O)[C@@H]1CCCN1C(=O)[C@@H](NC(=O)[C@@H](NC(=O)[C@@H](N)CCCCN)[C@@H](C)O)C(C)C)C(C)C)C(C)C)C(=O)N[C@@H](CCCCN)C(=O)N[C@H](C(=O)N[C@@H](CO)C(=O)N[C@@H](CO)C(=O)N[C@@H](C)C(=O)NCC(=O)N[C@@H](Cc1ccccc1)C(=O)NCC(=O)N[C@@H](Cc1ccccc1)C(=O)O)C(C)C [KTVPVVLKASIKVSSAGFGF],≥ 126 µM,> 126 µM,–,–,–,–,–
CC[C@H](C)[C@H](NC(=O)[C@H](CCCN=C(N)N)NC(=O)[C@H](CCC(N)=O)NC(=O)[C@@H](NC(=O)[C@H](CCCCN)NC(=O)[C@H](CCCN=C(N)N)NC(=O)[C@@H](N)CCCCN)C(C)C)C(=O)N[C@@H](CCCCN)C(=O)N[C@@H](CC(=O)O)C(=O)N[C@@H](Cc1ccccc1)C(=O)N[C@@H](CC(C)C)C(=O)N[C@@H](CCCN=C(N)N)C(=O)O [KRKVQRIKDFLR],–,–,–,20 µM,1.25 µM,2.5 µM,10 µM
